Assay results from paper PMC7584476, “Safety and efficacy of BAY1436032 in IDH1-mutant AML: phase I study results” (Leukemia, 2020).

Tested on: subjects with mIDH1 advanced AML
Assay: Phase I study: safety and tolerability (TEAE, DLT, MTD, ECG)
Type: in vivo
Protocol: This study was an open-label, nonrandomized, multicenter phase I trial. Subjects were screened at 13 hospital sites in 2 countries (USA and Germany). The study was to consist of dose-escalation followed by dose-expansion. The MTD identified in dose-escalation was to be used in the dose-expansion. If MTD was not reached in dose-escalation, a dose for the expansion would be selected based on available PK, pharmacodynamic, safety, and efficacy data. BAY1436032 was administered twice-daily (BID) in continuous 28-day cycles. In dose-escalation, up to 9 evaluable subjects could be enrolled per cohort, with a minimum of 3 dose-limiting toxicity (DLT)-free evaluable subjects required prior to escalating to the next highest dose. Bayesian dose-DLT modeling was performed to help guide dosing decisions.
DLTs were differentially defined for nonhematopoietic versus hematopoietic toxicities. Nonhematopoietic toxicities of ≥grade 3 occurring during the first cycle of treatment were to be considered DLTs with the following exceptions: (1) Alopecia and nausea controlled by medical management; (2) Tumor lysis syndrome if successfully managed clinically and resolved within 7 days without any end-organ damage; (3) Differentiation syndrome (DS) if successfully managed clinically and resolved within 7 days without any end-organ damage; (4) Asymptomatic ≥grade 3 electrolyte abnormalities not considered clinically significant by the investigator. […] For certain toxicities such as laboratory assessments without a clear clinical correlate, a discussion between the investigator and the sponsor determined whether the adverse event (AE) should be assessed as a DLT.
DLTs identified during the first cycle of treatment were used to guide dose-escalation decisions and to determine the MTD, and if safety issues appeared in subsequent cycles they were also to be considered. Hydroxyurea was permitted during the first cycle if white blood cell (WBC) exceeded 20 × 10^9/L and was also permitted for treatment of DS.
Safety and tolerability were evaluated by analysis of adverse events, physical examinations, vital signs, ECOG performance status, and various laboratory assessments. For safety monitoring, subjects were scheduled for clinic visits every week for the initial three cycles of treatment, after which time visits could be reduced to every-other-week with investigator and sponsor agreement. Cardiac function was assessed with triplicate 12-lead electrocardiograms (ECG) at screening, C1-D1, C1-D2, C1-D15, D1 of every subsequent cycle, and at treatment end. […] AEs are presented by the Medical Dictionary for Regulatory Activities (MedDRA) v21.1.

C[C@H]1C[C@@H](n2c(Nc3ccc(OC(F)(F)F)cc3)nc3cc(CCC(=O)O)ccc32)CC(C)(C)C1 [BAY1436032]
0: Related TEAE Diarrhea Grade 2 (300 mg BID, n=7) | Related TEAE Differentiation syndrome Grade 2 (300 mg BID, n=7) | Related TEAE Differentiation syndrome Grade 3 (300 mg BID, n=7) | Related TEAE Fatigue Grade 1 (300 mg BID, n=7) | Related TEAE Fatigue Grade 3 (300 mg BID, n=7) | TEAE Abdominal pain upper Grade 1 (300 mg BID, n=7) | TEAE Abdominal pain upper Grade 2 (300 mg BID, n=7) | TEAE Acute kidney injury Grade 3 (300 mg BID, n=7) | TEAE Anaemia Grade 3 (300 mg BID, n=7) | TEAE Anxiety Grade 2 (300 mg BID, n=7) | TEAE Arthralgia Grade 1 (300 mg BID, n=7) | TEAE Arthralgia Grade 2 (300 mg BID, n=7) | TEAE Constipation Grade 1 (300 mg BID, n=7) | TEAE Contusion Grade 2 (300 mg BID, n=7) | TEAE Decreased appetite Grade 3 (300 mg BID, n=7) | TEAE Diarrhea Grade 2 (300 mg BID, n=7) | TEAE Epistaxis Grade 1 (300 mg BID, n=7) | TEAE Epistaxis Grade 2 (300 mg BID, n=7) | TEAE Epistaxis Grade 3 (300 mg BID, n=7) | TEAE Fall Grade 1 (300 mg BID, n=7) | TEAE General physical health deterioration Grade 3 (300 mg BID, n=7) | TEAE General physical health deterioration Grade 5 (300 mg BID, n=7) | TEAE Haematuria Grade 2 (300 mg BID, n=7) | TEAE Haematuria Grade 3 (300 mg BID, n=7) | TEAE Headache Grade 3 (300 mg BID, n=7) | TEAE Hyperkalaemia Grade 4 (300 mg BID, n=7) | TEAE Hypertension Grade 2 (300 mg BID, n=7) | TEAE Hypertension Grade 3 (300 mg BID, n=7) | TEAE Hyperuricaemia Grade 1 (300 mg BID, n=7) | TEAE Hyperuricaemia Grade 3 (300 mg BID, n=7) | TEAE Hypokalaemia Grade 2 (300 mg BID, n=7) | TEAE Hyponatraemia Grade 3 (300 mg BID, n=7) | TEAE Hypophosphataemia Grade 1 (300 mg BID, n=7) | TEAE Nausea Grade 3 (300 mg BID, n=7) | TEAE Pain in extremity Grade 2 (300 mg BID, n=7) | TEAE Pneumonia Grade 1 (300 mg BID, n=7) | TEAE Pneumonia fungal Grade 2 (300 mg BID, n=7) | TEAE Pneumonia fungal Grade 3 (300 mg BID, n=7) | TEAE Pneumonia fungal Grade 4 (300 mg BID, n=7) | TEAE Productive cough Grade 1 (300 mg BID, n=7) | TEAE Productive cough Grade 2 (300 mg BID, n=7) | TEAE Pyrexia Grade 1 (300 mg BID, n=7) | TEAE Pyrexia Grade 2 (300 mg BID, n=7) | TEAE Pyrexia Grade 3 (300 mg BID, n=7) | TEAE Rash Grade 1 (300 mg BID, n=7) | TEAE Rash Grade 2 (300 mg BID, n=7) | TEAE Thrombocytopenia Grade 4 (300 mg BID, n=7) | TEAE Weight decreased Grade 2 (300 mg BID, n=7) | TEAE Weight decreased Grade 3 (300 mg BID, n=7) | Related TEAE Decreased appetite Grade 1 (600 mg BID, n=4) | Related TEAE Decreased appetite Grade 2 (600 mg BID, n=4) | Related TEAE Diarrhea Grade 2 (600 mg BID, n=4) | Related TEAE Differentiation syndrome Grade 2 (600 mg BID, n=4) | Related TEAE Differentiation syndrome Grade 3 (600 mg BID, n=4) | Related TEAE Dyspnea Grade 1 (600 mg BID, n=4) | Related TEAE Dyspnea Grade 2 (600 mg BID, n=4) | Related TEAE Fatigue Grade 2 (600 mg BID, n=4) | Related TEAE Fatigue Grade 3 (600 mg BID, n=4) | Related TEAE Hypomagnesaemia Grade 1 (600 mg BID, n=4) | Related TEAE Nausea Grade 2 (600 mg BID, n=4) | Related TEAE Sinus tachycardia Grade 1 (600 mg BID, n=4) | TEAE Abdominal pain upper Grade 1 (600 mg BID, n=4) | TEAE Abdominal pain upper Grade 2 (600 mg BID, n=4) | TEAE Acute kidney injury Grade 1 (600 mg BID, n=4) | TEAE Acute kidney injury Grade 2 (600 mg BID, n=4) | TEAE Anaemia Grade 4 (600 mg BID, n=4) | TEAE Anxiety Grade 1 (600 mg BID, n=4) | TEAE Anxiety Grade 2 (600 mg BID, n=4) | TEAE Arthralgia Grade 1 (600 mg BID, n=4) | TEAE Arthralgia Grade 2 (600 mg BID, n=4) | TEAE Constipation Grade 1 (600 mg BID, n=4) | TEAE Constipation Grade 2 (600 mg BID, n=4) | TEAE Contusion Grade 1 (600 mg BID, n=4) | TEAE Contusion Grade 2 (600 mg BID, n=4) | TEAE Cough Grade 2 (600 mg BID, n=4)
1: Related TEAE Decreased appetite Grade 1 (300 mg BID, n=7) | Related TEAE Decreased appetite Grade 2 (300 mg BID, n=7) | Related TEAE Dyspnea Grade 1 (300 mg BID, n=7) | Related TEAE Dyspnea Grade 2 (300 mg BID, n=7) | Related TEAE Fatigue Grade 2 (300 mg BID, n=7) | Related TEAE Hypomagnesaemia Grade 1 (300 mg BID, n=7) | Related TEAE Nausea Grade 1 (300 mg BID, n=7) | Related TEAE Nausea Grade 2 (300 mg BID, n=7) | Related TEAE Sinus tachycardia Grade 1 (300 mg BID, n=7) | TEAE Acute kidney injury Grade 1 (300 mg BID, n=7) | TEAE Acute kidney injury Grade 2 (300 mg BID, n=7) | TEAE Anaemia Grade 4 (300 mg BID, n=7) | TEAE Anxiety Grade 1 (300 mg BID, n=7) | TEAE Constipation Grade 2 (300 mg BID, n=7) | TEAE Contusion Grade 1 (300 mg BID, n=7) | TEAE Cough Grade 2 (300 mg BID, n=7) | TEAE Decreased appetite Grade 2 (300 mg BID, n=7) | TEAE Dyspnoea Grade 2 (300 mg BID, n=7) | TEAE Fatigue Grade 2 (300 mg BID, n=7) | TEAE Fatigue Grade 3 (300 mg BID, n=7) | TEAE Haematuria Grade 1 (300 mg BID, n=7) | TEAE Headache Grade 1 (300 mg BID, n=7) | TEAE Hyperkalaemia Grade 1 (300 mg BID, n=7) | TEAE Hypokalaemia Grade 3 (300 mg BID, n=7) | TEAE Hypophosphataemia Grade 2 (300 mg BID, n=7) | TEAE Leukocytosis Grade 2 (300 mg BID, n=7) | TEAE Leukocytosis Grade 3 (300 mg BID, n=7) | TEAE Lung infection Grade 3 (300 mg BID, n=7) | TEAE Lung infection Grade 5 (300 mg BID, n=7) | TEAE Nausea Grade 1 (300 mg BID, n=7) | TEAE Nausea Grade 2 (300 mg BID, n=7) | TEAE Oedema peripheral Grade 3 (300 mg BID, n=7) | TEAE Pain in extremity Grade 1 (300 mg BID, n=7) | TEAE Pneumonia Grade 2 (300 mg BID, n=7) | TEAE Pneumonia Grade 3 (300 mg BID, n=7) | TEAE Sepsis Grade 5 (300 mg BID, n=7) | Related TEAE Fatigue Grade 1 (600 mg BID, n=4) | Related TEAE Nausea Grade 1 (600 mg BID, n=4) | Related TEAE Vomiting Grade 1 (600 mg BID, n=4) | TEAE Acute kidney injury Grade 3 (600 mg BID, n=4) | TEAE Anaemia Grade 3 (600 mg BID, n=4) | TEAE Cough Grade 1 (600 mg BID, n=4)
3: TEAE Decreased appetite Grade 1 (300 mg BID, n=7) | TEAE Oedema peripheral Grade 1 (300 mg BID, n=7) | TEAE Vomiting Grade 1 (300 mg BID, n=7)
4: TEAE Diarrhea Grade 1 (300 mg BID, n=7)
2: Related TEAE Vomiting Grade 1 (300 mg BID, n=7) | TEAE Cough Grade 1 (300 mg BID, n=7) | TEAE Dry skin Grade 1 (300 mg BID, n=7) | TEAE Dyspnoea Grade 1 (300 mg BID, n=7) | TEAE Dyspnoea Grade 3 (300 mg BID, n=7) | TEAE Fatigue Grade 1 (300 mg BID, n=7) | TEAE Febrile neutropenia Grade 3 (300 mg BID, n=7) | TEAE Gingivitis Grade 1 (300 mg BID, n=7) | TEAE Headache Grade 2 (300 mg BID, n=7) | TEAE Hypokalaemia Grade 1 (300 mg BID, n=7) | TEAE Hyponatraemia Grade 1 (300 mg BID, n=7) | TEAE Sepsis Grade 4 (300 mg BID, n=7) | TEAE Sinus tachycardia Grade 1 (300 mg BID, n=7) | TEAE Weight decreased Grade 1 (300 mg BID, n=7)
